Test results from US6313309A, “4-thionaphthyl--1H--imidazoles which are usefulα22-adrenoceptoR agonists/ antagonists” (Ortho-McNeil Pharmaceutical, Inc., priority 1999, dated 2001).
Read-outs that look alike come from different tables or passages of the source.

Experiments:
[1] = tested on: abdominal constriction response; experiment: Mouse Acetylcholine Bromide-Induced Abdominal Constriction Assay (MAIT); type: in vivo; details: 30 mg/kg po; 5.5 mg/kg i.p. acetylcholine bromide 30 minutes later; ten minute observation
Description: The mouse acetylcholine bromide-induced abdominal constriction assay, is described by Collier et al. in Brit. J. Pharmacol. Chem. Ther., 32: 295-310, 1968, with minor modifications was used to assess analgesic potency of the compounds herein. The test drugs or appropriate vehicle were administered orally (p.o.) and 30 minutes later the animal received an intraperitoneal (i.p.) injection of 5.5 mg/kg acetylcholine bromide (Matheson, Coleman and Bell, East Rutherford, N.J.). The mice were then placed in groups of three into glass bell jars and observed for a ten minute observation period for the occurrence of an abdominal constriction response (defined as a wave of constriction and elongation passing caudally along the abdominal wall, accompanied by a twisting of the trunk and followed by extension of the hind limbs). The percent inhibition of this response to a nociceptive stimulus (equated to % analgesia) was calculated as follows: The % Inhibition of response, i.e., % analgesia is equal to the difference between the number of control animals responding and the number of drug-treated animals responding times 100 divided by the number of control animals responding.
At least 15 animals were used for control and in each of the drug treated groups. At least three doses were used to determine each dose response curve and ED50 (that dose which would produce 50% analgesia). The ED50 values and their 95% fiducial limits were determined by a computer assisted probit analysis.

[2] = target: T1, Alpha-2D Adrenergic Receptor (Rattus norvegicus, UniProt P22909); experiment: Alpha-2D Adrenergic Receptor Binding Assay (3H-para-aminoclonidine, rat cortex membranes); details: rat cortex synaptic membranes
T1 construct: aliquots of the synaptic membrane fraction; from tissue; host or cells: rat cerebral cortex, synaptic membrane fraction (male Wistar rats)
T1 sequence (P22909 1-465): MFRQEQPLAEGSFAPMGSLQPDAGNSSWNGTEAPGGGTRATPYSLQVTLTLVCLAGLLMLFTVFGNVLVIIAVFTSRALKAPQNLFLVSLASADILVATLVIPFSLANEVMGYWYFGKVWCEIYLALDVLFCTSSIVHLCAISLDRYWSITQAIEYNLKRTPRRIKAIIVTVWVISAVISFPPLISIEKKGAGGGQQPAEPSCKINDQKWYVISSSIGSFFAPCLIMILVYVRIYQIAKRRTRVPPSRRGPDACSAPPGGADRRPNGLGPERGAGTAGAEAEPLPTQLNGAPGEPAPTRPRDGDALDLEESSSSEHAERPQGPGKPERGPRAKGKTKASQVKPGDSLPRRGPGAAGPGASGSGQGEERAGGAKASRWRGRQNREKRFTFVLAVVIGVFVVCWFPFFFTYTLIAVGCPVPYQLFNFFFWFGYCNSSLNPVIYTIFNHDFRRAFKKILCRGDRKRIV
Description: Male, Wistar rats (150-250 g, VAF, Charles River, Kingston, N.Y.) are sacrificed by cervical dislocation and their brains removed and placed immediately in ice cold HEPES buffered sucrose. The cortex is dissected out and homogenized in 20 volumes of HEPES sucrose in a Teflon™-glass homogenizer. The homogenate is centrifuged at 1000 g for 10 min, and the resulting supernatant centrifuged at 42,000 g for 10 min. The resulting pellet is resuspended in 30 volumes of 3 mM potassium phosphate buffer, pH 7.5, preincubated at 25° C. for 30 min and recentrifuged. The resulting pellet is resuspended as described above and used for the receptor binding assay. Incubation is performed in test tubes containing phosphate buffer, 2.5 mM MgCl2, aliquots of the synaptic membrane fraction, the ligand ^3 H-para-aminoclonidine and test drug at 25° C. for 20 min. The incubation is terminated by filtration of the tube contents through glass fiber filter sheets. Following washing of the sheets with 10 mM HEPES buffer, the adhering radioactivity is quantified by liquid scintillation spectrometry.
Binding of the test drug to the receptor is determined by comparing the amount of radiolabeled ligand bound in control tubes without drug to the amount of radiolabeled ligand bound in the presence of the drug. Dose-response data are analyzed with LIGAND, a nonlinear curve fitting program designed specifically for the analysis of ligand binding data. This assay is described by Simmons, R. M. A., and Jones, D. J., Binding of [^3 H-]prazosin and [^3 H]p-aminoclonidine to (α-Adrenoceptors in Rat Spinal Cord, Brain Research 445:338-349, 1988.

[3] = 25° C., 20 min, read-out: α-2D Binding Ki

Row | SMILES | MAIT Activity % Inhibition [1] | Ki [2, 3] | Ki ([2]; value in parentheses, not explained, read-out: α-2D Binding Ki (second value, in parentheses))
1 | c1cc(-c2c[nH]cn2)c2ccsc2c1 [Cp-1, 4-(Thionaphth-4-yl)-1H-imidazole (Z)-2-butenedioate] | 73% | 2.6 nM | 
2 | Cc1sc(C)c2c1CCC=C2c1c[nH]cn1 [Cp-4, 4-(1,3-Dimethyl-6,7-dihydrobenzo[c]thiophene-4-yl)-1H-imidazole(Z)-2-Butenedioate] | 40% |  | 1.2 nM
3 | Cc1sc(C)c2c1CCCC2c1c[nH]cn1.O=C(O)/C=C\C(=O)O (stereo not shown) [Cp-5, 4-(1,3-Dimethyl-4,5,6,7-tetrahydrobenzo[c]thiophene-4-yl)-1H-imidazole (Z)-2-Butenedioate] | 93% | 2.9 nM | 
4 | c1nc(C2CCCc3sccc32)c[nH]1 (stereo not shown) [Cp-3, 4-(4-Imidazoyl)-4,5,6,7-tetrahydrothianapthene Perchlorate] | 100% | 0.56 nM | 
5 | C1=C(c2c[nH]cn2)c2sccc2CC1 [Cp-7] | 60% | 3 nM | 
6 | C1=C(c2c[nH]cn2)c2ccsc2CC1 [Cp-2, 4-(4-Imidazoyl)-6,7-dihydrothianapthene Perchlorate] | 100% | 1.5 nM | 
7 | c1nc(C2CCCc3ccsc32)c[nH]1 (stereo not shown) [Cp-6] |  | 0.35 nM | 
